Laboratory results from patent US20210087217A1, “NUCLEOTIDE HEMI-SULFATE SALT FOR THE TREATMENT OF HEPATITIS C VIRUS” (Atea Pharmaceuticals, Inc., priority 2017, published 2021).
Entries after “also recorded” stand apart in the source; their conditions may differ. Structures can show the parent of a compound that is named as a salt. Values belong to the molecule of their own block, whether it stands above or below them.

Assays:
[1] = Storage of Compound 1 forms and amorphous salts at 25° C./60% RH for 14 days (HPLC, XRPD, observation); details: for Physical/chemical stability and appearance on storage: 25° C./60% RH, 14 days
Description: This initial characterization was followed by storage at 25° C./60% relative humidity (RH) for 14 days with analysis by […] and XRPD after 7 and 14 days. FIG. 4A is the XRPD after 14 days at 25° C./60% (RH).
The samples were then frozen with the solvent removed by lyophilization.
The samples were then subjected to storage at 25° C./60% relative humidity (RH) for 14 days with analysis by HPLC and XRPD after 7 (FIG. 4B) and 14 days (FIG. 5A).

[2] = target: human mitochondrial RNA-dependent RNA polymerase (POLRMT) (Homo sapiens, UniProt O00411); assay: Incorporation of nucleotide analog triphosphates by human mitochondrial RNA polymerase; format: biochemical; details: incorporation by human mitochondrial RNA polymerase
Description: The incorporation of these analogs by human mitochondrial RNA-dependent RNA polymerase (POLRMT) were determined according to Arnold et al. (Sensitivity of Mitochondrial Transcription and Resistance of RNA Polymerase II Dependent Nuclear Transcription to Antiviral Ribonucleotides. PLoS Pathog., 2012, 8, e1003030).

Chain of human mitochondrial RNA-dependent RNA polymerase (POLRMT) (O00411 42-1230): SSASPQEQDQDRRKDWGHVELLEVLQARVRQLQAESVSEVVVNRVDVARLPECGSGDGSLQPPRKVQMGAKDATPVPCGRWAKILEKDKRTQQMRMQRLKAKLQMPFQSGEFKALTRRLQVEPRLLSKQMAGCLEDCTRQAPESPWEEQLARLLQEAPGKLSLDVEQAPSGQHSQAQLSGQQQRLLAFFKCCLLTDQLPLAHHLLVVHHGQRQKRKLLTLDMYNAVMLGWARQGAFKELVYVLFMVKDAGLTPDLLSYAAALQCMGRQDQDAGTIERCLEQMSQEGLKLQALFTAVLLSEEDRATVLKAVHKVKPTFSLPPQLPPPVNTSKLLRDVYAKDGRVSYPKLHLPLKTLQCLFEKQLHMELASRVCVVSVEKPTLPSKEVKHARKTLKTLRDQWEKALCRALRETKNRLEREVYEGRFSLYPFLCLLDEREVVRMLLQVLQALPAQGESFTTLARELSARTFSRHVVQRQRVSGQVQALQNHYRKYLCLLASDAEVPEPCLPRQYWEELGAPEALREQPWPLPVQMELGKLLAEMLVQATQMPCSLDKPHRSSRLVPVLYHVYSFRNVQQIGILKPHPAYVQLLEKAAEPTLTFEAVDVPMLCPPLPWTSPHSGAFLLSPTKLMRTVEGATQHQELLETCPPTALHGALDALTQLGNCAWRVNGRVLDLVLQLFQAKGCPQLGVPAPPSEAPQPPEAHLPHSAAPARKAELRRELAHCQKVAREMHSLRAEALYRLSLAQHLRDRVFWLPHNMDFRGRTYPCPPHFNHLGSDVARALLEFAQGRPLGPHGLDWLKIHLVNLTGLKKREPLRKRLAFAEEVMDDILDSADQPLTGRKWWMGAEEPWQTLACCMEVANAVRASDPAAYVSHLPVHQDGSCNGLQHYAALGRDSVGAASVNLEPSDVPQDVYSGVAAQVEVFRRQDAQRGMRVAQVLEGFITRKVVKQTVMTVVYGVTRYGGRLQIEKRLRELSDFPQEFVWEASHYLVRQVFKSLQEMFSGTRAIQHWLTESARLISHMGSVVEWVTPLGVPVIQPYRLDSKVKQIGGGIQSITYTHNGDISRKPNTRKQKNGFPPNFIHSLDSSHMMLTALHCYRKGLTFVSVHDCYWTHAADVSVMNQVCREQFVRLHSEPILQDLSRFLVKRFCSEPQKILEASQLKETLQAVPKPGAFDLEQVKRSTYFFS

Structure (SMILES): CNc1nc(N)nc2c1ncn2[C@@H]1O[C@H](CO[P@@](=O)(N[C@@H](C)C(=O)OC(C)C)Oc2ccccc2)[C@@H](O)[C@@]1(C)F [Sample 1-2]
HPLC purity ([1]; 0 days at 25° C./60% RH): 99.1
Observation ([1]; 0 days at 25° C./60% RH): White solid
Physical/chemical stability and appearance on storage [1]: stable
HPLC purity ([1]; 7 days at 25° C./60% RH): 99.2
Observation ([1]; 7 days at 25° C./60% RH): White solid
HPLC purity ([1]; 14 days at 25° C./60% RH): 99.0
Observation ([1]; 14 days at 25° C./60% RH): White solid

Kpol [2]: 0.00034 s⁻¹
Structure (SMILES): CC1(F)C(O)C(COP(=O)(O)OP(=O)(O)OP(=O)(O)O)OC1n1ccc(=O)[nH]c1=O (stereo not shown) [2’-deoxy-2’-F-2’-C-methyl UTP]

Structure (SMILES): CNc1nc(N)nc2c1ncn2C1OC(COP(=O)(NC(C)C(=O)OC(C)C)Oc2ccccc2)C(O)C1(C)F.CNc1nc(N)nc2c1ncn2C1OC(COP(=O)(NC(C)C(=O)OC(C)C)Oc2ccccc2)C(O)C1(C)F.O=S(=O)(O)O (stereo not shown) [Sample 1-9]
HPLC purity ([1]; 0 days at 25° C./60% RH): 98.7
Observation ([1]; 0 days at 25° C./60% RH): White solid
Physical/chemical stability and appearance on storage [1]: physically and chemically stable
HPLC purity ([1]; 7 days at 25° C./60% RH): 98.1
Observation ([1]; 7 days at 25° C./60% RH): White solid
HPLC purity ([1]; 14 days at 25° C./60% RH): 96.4
Observation ([1]; 14 days at 25° C./60% RH): White solid

Structure (SMILES): CNc1nc(N)nc2c1ncn2[C@@H]1O[C@H](CO[P@@](=O)(N[C@@H](C)C(=O)OC(C)C)Oc2ccccc2)[C@@H](O)[C@@]1(C)F [Sample 1-1]
HPLC purity ([1]; 0 days at 25° C./60% RH): 98.6
Observation ([1]; 0 days at 25° C./60% RH): White solid
Physical/chemical stability and appearance on storage [1]: stable
HPLC purity ([1]; 7 days at 25° C./60% RH): 98.7
Observation ([1]; 7 days at 25° C./60% RH): White solid
HPLC purity ([1]; 14 days at 25° C./60% RH): 98.5
Observation ([1]; 14 days at 25° C./60% RH): White solid

Structure (SMILES): CNc1nc(N)nc2c1ncn2[C@@H]1O[C@H](CO[P@@](=O)(N[C@@H](C)C(=O)OC(C)C)Oc2ccccc2)[C@@H](O)[C@@]1(C)F [Compound 3, mono-sulfate salt of isopropyl((S)-(((2R,3R,4R,5R)-5-(2-amino-6-(methylamino)-9H-purin-9-yl)-4-fluoro-3-hydroxy-4-methyltetrahydrofuran-2-yl)methoxy)(phenoxy)phosphoryl)-L-alaninate]
Physical/chemical stability and appearance on storage [1]: unstable; also recorded: not physically stable

Structure (SMILES): CNc1nc(N)nc2c1ncn2C1OC(COP(=O)(NC(C)C(=O)OC(C)C)Oc2ccccc2)C(O)C1(C)F.Cl (stereo not shown) [Sample 1-4]
Hygroscopicity [1]: hygroscopic
HPLC purity ([1]; 0 days at 25° C./60% RH): 98.7
Observation ([1]; 0 days at 25° C./60% RH): White solid
Physical/chemical stability and appearance on storage [1]: physically and chemically stable
HPLC purity ([1]; 7 days at 25° C./60% RH): 98.8
Observation ([1]; 7 days at 25° C./60% RH): White solid
HPLC purity ([1]; 14 days at 25° C./60% RH): 98.6
Observation ([1]; 14 days at 25° C./60% RH): White solid
